In general, IC50 refers to the concentration that inhibits the measured activity by half. A high value points to a need for much substance.

The values below come from doi:10.1101/713214v1 (biorxiv, 2019).

Holding throughout (type): biochemical
For one assay, the target named is MtbClpP1P2 (Mycobacterium tuberculosis, UniProt P9WPC5). Nature of the assay: fluorogenic peptidase assay, Z-Gly-Gly-Leu-AMC.
Another assay addresses EcClpP (Escherichia coli, UniProt P0A6G7). As to the kind of experiment: fluorogenic peptidase assay, Suc-LY-AMC.
In the next assay the target is PaClpP1 (Pseudomonas aeruginosa, UniProt Q9I2U1). Nature of the assay: fluorogenic peptidase assay, Suc-LY-AMC.
The target in the next assay is T1, SaClpP (Staphylococcus aureus, UniProt Q2G036).
T1 sequence (Q2G036 1-195): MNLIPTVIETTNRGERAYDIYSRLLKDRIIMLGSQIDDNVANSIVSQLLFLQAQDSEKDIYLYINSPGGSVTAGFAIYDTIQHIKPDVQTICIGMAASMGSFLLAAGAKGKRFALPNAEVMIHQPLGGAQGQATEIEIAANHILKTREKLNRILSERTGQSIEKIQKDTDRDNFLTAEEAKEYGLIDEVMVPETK
As to the kind of experiment: fluorogenic peptidase assay, Suc-LY-AMC.

The target of a further assay is hClpP (Homo sapiens, UniProt Q16740). Nature of the assay: fluorogenic peptidase assay, Suc-LY-AMC.
Sequence of hClpP (Q16740 58-277): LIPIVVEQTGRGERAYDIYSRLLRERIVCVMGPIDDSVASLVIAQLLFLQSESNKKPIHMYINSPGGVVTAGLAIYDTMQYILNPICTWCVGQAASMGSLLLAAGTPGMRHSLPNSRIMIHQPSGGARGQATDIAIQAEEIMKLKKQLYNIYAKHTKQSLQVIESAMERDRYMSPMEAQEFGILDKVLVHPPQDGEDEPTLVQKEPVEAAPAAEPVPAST

Sequence of MtbClpP1P2 (P9WPC5 whole entry, looked up): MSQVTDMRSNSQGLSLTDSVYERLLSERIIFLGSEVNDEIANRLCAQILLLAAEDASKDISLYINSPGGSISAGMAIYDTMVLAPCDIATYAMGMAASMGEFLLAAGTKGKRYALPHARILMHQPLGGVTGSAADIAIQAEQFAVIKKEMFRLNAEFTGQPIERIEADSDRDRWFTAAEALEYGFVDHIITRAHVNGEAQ
Sequence of EcClpP (P0A6G7 15-207): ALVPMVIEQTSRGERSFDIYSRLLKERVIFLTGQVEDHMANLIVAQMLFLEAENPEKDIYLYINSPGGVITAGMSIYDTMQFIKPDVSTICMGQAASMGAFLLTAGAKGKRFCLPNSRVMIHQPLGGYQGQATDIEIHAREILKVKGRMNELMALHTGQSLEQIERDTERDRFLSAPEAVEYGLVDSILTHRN
Sequence of PaClpP1 (Q9I2U1 whole entry): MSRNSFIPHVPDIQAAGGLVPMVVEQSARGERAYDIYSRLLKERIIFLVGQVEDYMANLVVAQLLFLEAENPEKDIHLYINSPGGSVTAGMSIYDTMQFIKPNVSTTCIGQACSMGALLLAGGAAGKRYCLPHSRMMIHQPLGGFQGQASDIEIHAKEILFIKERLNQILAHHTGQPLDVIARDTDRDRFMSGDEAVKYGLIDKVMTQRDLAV

As to `Cc1cc2c(F)c(Oc3ncnn4cc(OC[C@@H](C)O)c(C)c34)ccc2[nH]1` [brivanib], the concentration for half-maximal inhibition (IC50) against MtbClpP1P2 was 12.5 µM.
With `COc1cc2c(Oc3ccc4[nH]c(C)cc4c3F)ncnc2cc1OCCCN1CCCC1` [cediranib], the IC50 was 3.4 ± 0.7 µM on MtbClpP1P2; greater than 100 µM at EcClpP; greater than 100 µM on PaClpP1; greater than 100 µM against SaClpP; 36.6 ± 0.5 µM against hClpP.
